Reference: patent US5738998A, “Compositions and methods for diagnosing schizophrenia” (priority 1995, dated 1998)

Tested on: Chinese hamster ovary cells without the D4 receptor
Test: [35S]GTPγS binding to G proteins in CHO cells without the D4 receptor
Format: cell-based
Conditions: CHO cells without the D4 receptor (FIG. 5B)
Excerpt: FIGS. 5A and 5B illustrate graphic representations of the effect of cycloleucine on spontaneous G protein binding of [^35 S]GTPγS.

NC1(C(=O)O)CCCC1 [cycloleucine]
spontaneous [35S]GTPγS binding: inability
